Tests used:
[1] = system: Thorne soybean half-seed explants; test: Agrobacterium-mediated transformation and regeneration of half-seed explants from seeds soaked in BAP; details: for Initial Transformation Efficiency (ITE; %): ITE = no. of Liberty-resistant R0 events/no. of explants infected
Method: Mature Thorne soybean seeds were surface-sterilized for 16 hrs using chlorine gas, which was produced by mixing 3.5 ml of 12 N HCl with 100 ml of commercial bleach (5.25% sodium hypochloride) (Di et al., Plant Cell Rep. 15: 746-750 (1996)). […] The seeds were then split by cutting longitudinally along the hilums to separate the cotyledons, and the seed coats, primary shoots, and embryonic axes were removed, thereby generating half-seed explants. The half-seed explants were co-cultivated with A. tumefaciens for five days in the light. […]
About 50-100 half-seed explants were inoculated with 30 ml of Agrobacterium suspension culture in a 20×100 mm Petri dish at RT for 30 min. After inoculation, half-seed explants were transferred to co-cultivation medium lined with filter paper (6 explants per plate; flat side of explant in contact with filter paper) (see Table II). Co-cultivation was carried out for five days at 24° C. with 18 hr photoperiod at 140 μmoles sec^−1m^−2 light intensity.
(§1) After co-cultivation, the half-seed explants were washed in liquid shoot induction (SI) medium (see Table III). The explants were cultured on shoot induction medium solidified with 0.7% agar in the absence of selection. The base of the explant (i.e., the part of the explant from where the embryonic axis was removed) was embedded in the medium, facing upwards. […] Shoot induction was carried out in a Percival Biological Incubator at 24° C. with an 18-hr photoperiod at 140 μmoles sec^−1m^−2 light intensity. After 14 days, the explants were transferred to fresh shoot induction medium containing 6 mg/l glufosinate. After four weeks of culture on shoot induction medium, explants were transferred to shoot elongation (SE) medium containing 6 mg/l glufosinate (see Table IV). Two to four weeks later, elongated shoots (>2.5 cm) were dipped in sterile IBA (1 mg/l) and then transferred to rooting medium (see Table V) without glufosinate. After two weeks, agar medium was rinsed off of the rooted plantlets with water, and the rooted plantlets were transplanted to soil (Redi-Earth, Peat-Lite Mix, Scotts-Sierra Horticultural Products Company, Marysville, Ohio) in jiffy pots. The plant (R0) was grown at 24° C. with an 18-hr photoperiod for one-two weeks and then transferred to the greenhouse.
R0 plants with two trifoliates were screened using the herbicide paint assay to identify putative transformants that expressed the bar gene. The upper surface of a leaf was painted with 150 mg/l glufosinate (herbicide Liberty®, AgrEvo, U.S.A.) along the midrib using a cotton bud. Plants were scored based on the tolerance of the leaf tissue to glufosinate at three-five days after painting. Glufosinate-resistant R0 plants were grown in the greenhouse until maturity and seeds were harvested. Subsequently, seeds from R0 plants were sown and progeny-tested to confirm the presence of the transgene in the R1 generation by spraying two-week-old seedlings with 200 mg/l glufosinate. Plants were scored one week after spraying. Thirty-two transgenic events were confirmed in the R1 progeny by spraying with 200 mg/l glufosinate using herbicide Liberty. […] Plants were fertile and produced seed.
After five days of co-cultivation, half-seed explants infected with pTF102 were assayed for transient GUS blue expression to verify T-DNA transfer. The explants were incubated overnight in 5-bromo-4-chloro-3-indolyl glucuronide (X-gluc) solution at 37° C. (Jefferson et al., EMBO J 6: 3901-3907 (1987)). After staining, the explants were de-stained with 70% ethanol to improve contrast. The incidence of GUS activity was determined based on the presence of blue-staining areas. In addition, stable GUS expression was determined after 28 days on regeneration medium or on R0 plants. The transgenic nature of the soybean plants was also confirmed in the R0 or R1 generation by histochemical GUS assay.

[2] = system: soybean half-seed explants; test: Shoot induction on half-seed explants with BAP added to shoot induction medium; details: BAP 15-100 μM in shoot induction medium, compared to no treatment or 2.5-7.5 μM
Method: as §1

c1ccc(CNc2ncnc3nc[nH]c23)cc1 [BAP, 6-benzylaminopurine]
Freq. GUS blue (on the section of explant where shoots were induced) ([1]; seeds soaked in 7.5 μM BAP): (10%) | Freq. GUS blue (on the section of explant where shoots were induced), count ([1]; seeds soaked in 7.5 μM BAP): 1/10 | No. of Liberty-resistant R0 plants ([1]; seeds soaked in 7.5 μM BAP): 0 | Reg. Freq. (%) (regeneration frequency at first shoot induction stage) ([1]; seeds soaked in 7.5 μM BAP): (8) % | Reg. Freq. (regeneration frequency at first shoot induction stage), explants count ([1]; seeds soaked in 7.5 μM BAP): 4/50 | Initial Transformation Efficiency (ITE; %) ([1]; seeds soaked in 7.5 μM BAP): 0.0% | Freq. GUS blue (on the section of explant where shoots were induced) ([1]; seeds soaked in 15 μM BAP): (20%) | Freq. GUS blue (on the section of explant where shoots were induced), count ([1]; seeds soaked in 15 μM BAP): 2/10 | No. of Liberty-resistant R0 plants ([1]; seeds soaked in 15 μM BAP): 3 | Reg. Freq. (%) (regeneration frequency at first shoot induction stage) ([1]; seeds soaked in 15 μM BAP): (48) % | Reg. Freq. (regeneration frequency at first shoot induction stage), explants count ([1]; seeds soaked in 15 μM BAP): 24/50 | Initial Transformation Efficiency (ITE; %) ([1]; seeds soaked in 15 μM BAP): 6.0% | Freq. GUS blue (on the section of explant where shoots were induced) ([1]; seeds soaked in 30 μM BAP): (90%) | Freq. GUS blue (on the section of explant where shoots were induced), count ([1]; seeds soaked in 30 μM BAP): 9/10 | No. of Liberty-resistant R0 plants ([1]; seeds soaked in 30 μM BAP): 2 | Reg. Freq. (%) (regeneration frequency at first shoot induction stage) ([1]; seeds soaked in 30 μM BAP): (58) % | Reg. Freq. (regeneration frequency at first shoot induction stage), explants count ([1]; seeds soaked in 30 μM BAP): 29/50 | Initial Transformation Efficiency (ITE; %) ([1]; seeds soaked in 30 μM BAP): 4.0% | Freq. GUS blue (on the section of explant where shoots were induced) ([1]; seeds soaked in 50 μM BAP): (67%) | Freq. GUS blue (on the section of explant where shoots were induced), count ([1]; seeds soaked in 50 μM BAP): 6/9 | No. of Liberty-resistant R0 plants ([1]; seeds soaked in 50 μM BAP): 0 | Reg. Freq. (%) (regeneration frequency at first shoot induction stage) ([1]; seeds soaked in 50 μM BAP): (46) % | Reg. Freq. (regeneration frequency at first shoot induction stage), explants count ([1]; seeds soaked in 50 μM BAP): 23/50 | Initial Transformation Efficiency (ITE; %) ([1]; seeds soaked in 50 μM BAP): 0.0% | shoot formation (regeneration frequency) [2]: enhanced shoot formation
